Each structure is given as a SMILES string.

Data set [1] deals with APP/PS/Tau dementia mouse model. Description: Morphological change of brain of dementia mouse model. The format is in vivo. Particulars: oral 100 μg/kg twice a week for 2 months, FIG. 6. The source says: In order to examine therapeutic effects of the benzene diamine derivatives on dementia, dementia mouse models were orally administered with the benzene diamine derivative, and morphological changes in the brains thereof were examined.
In detail, APP/PS/Tau was purchased as the dementia mouse model from Jackson lab (BAR HARBOR, USA), and APP/Tau female and APP/PSen1de9 purchased from Taconic (Hudson, USA) were cross-mated for 6 generations, and 4-month-old mouse models were obtained from F1. The dementia mouse models were divided into groups of 6 mice, and among the dementia mouse models, a control group was orally administered with a vehicle (PBS) for 2 months, and an experimental group was orally administered with 100 μg/kg/0.1 ml of N^1-(pyridin-2-ylmethyl)benzene-1,4-diamine (Compound 2) twice a week for 2 months. Thereafter, the mice were sacrificed, and their brains were removed. Their longitudinal sections were cut, and morphological changes were examined. For comparison, a normal mouse was sacrificed and its brain was removed. Its longitudinal section was cut, and morphological changes were examined.

A further data set has as its target T1, monomeric Aβ42 (Homo sapiens, UniProt P05067).
T1 construct: from tissue; host or cells: brain of dementia mouse models
Description: Brain tissue immunohistofluorescence, monomeric Aβ (BAM-10) and plaques (MX04). The format is in vivo, mouse. The conditions noted are these: oral 100 μg/kg twice a week for 2 months, confocal, FIG. 7. On the procedure: Overexpression of monomeric Aβ may increase formation of oligomeric Aβ, Aβ aggregates, and amyloid plaques to cause neuronal cytotoxicity. Therefore, anatomical analysis of the brain tissue was performed to examine whether the benzene diamine derivatives of the present disclosure inhibit monomeric Aβ formation in dementia mouse models.
As in Experimental Example 1, a control group was orally administered with a vehicle for 2 months, and an experimental group was orally administered with 100 μg/kg/0.1 ml of N^1-(pyridin-2-ylmethyl)benzene-1,4-diamine (Compound 2) twice a week for 2 months. The brain was taken from a non-treated dementia mouse model (4 months), and the brains of the control group and the experimental group were also taken after the administration. Each mouse was anesthetized with ketamine, and then the skull was incised. The brain was then embedded in paraffin and subjected to immunohistofluorescence staining. The brain tissues were fixed in formalin and sectioned at a thickness of 50 μm by using a vibrotome, and each tissue was placed on a glass slice. For comparison of monomeric Aβ, BAM-10 monoclonal anti-Aβ primary antibody labeled with QD525 probe (green fluorescence) was used to examine changes in the quantity of monomeric Aβ42. […]

Another data set relates to Aβ aggregates. Description: Brain tissue staining of Aβ aggregates with Thioflavin T. The format is in vivo, mouse. Particulars: oral 100 μg/kg twice a week for 2 months, confocal, FIG. 9. On the procedure: Like oligomeric Aβ, Aβ aggregates in the brain tissue may cause neuronal cell death by neuronal cytotoxicity, which may cause dementia. Therefore, anatomical analysis of the brain tissue was performed to examine whether the benzene diamine derivatives of the present disclosure inhibit neuronal cytotoxicity by Aβ aggregates in dementia mouse models.
In detail, as in Experimental Example 7-1, the dementia mouse models were prepared and their brain tissues were stained. Aβ aggregates in the brain tissue were labeled with Thioflavin T (ThT, Sigma-Aldrich) (green fluorescence), plaques were stained with a fluorescent staining reagent MX04 (blue), and incubated at 4° C. for 12 hours. Thereafter, the tissues were observed under a confocal microscope at 0.5×10.

The nature of a further data set: PAMPA-BBB analysis. The class given is in vitro ADME. On the procedure: […] PAMPA-BBB analysis was performed by using a PAMPA Explorer kit (pION, Inc. Billerica, Mass., USA) according to the manufacture's protocol with slight modifications. […] The prepared solution was put in each well of a donor plate (200 μl, repeated 12 times). A polyvinylidene fluoride (PVDF, […]) filter membrane on an acceptor plate was coated with BBB-1 lipid formulation (5 μl, pION). The acceptor plate was placed on top of the donor plate to generate a “sandwich”. Brain sink buffer (BSB, 200 μl, pION) was added to each well of the acceptor plate. The sandwich-shaped plate was incubated for 4 hours at room temperature without stirring. UV-vis spectra of the solutions in the reference, acceptor, and donor plates were measured using a microplate reader. A PAMPA Explorer software [v. 3.8 (pION)] was used to calculate the −log Pe values for compounds. CNS±designations were assigned by comparison with compounds that were identified in previous reports.
For orientation: The PAMPA barrier holds no transporters, so it reflects passive diffusion.

T1 sequence (P05067 672-713 limits assumed): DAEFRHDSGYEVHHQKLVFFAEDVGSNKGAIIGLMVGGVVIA

Consider `Nc1ccc(NCc2ccccn2)cc1` [Compound 2, N^1-(pyridin-2-ylmethyl)benzene-1,4-diamine], for which the “brain morphology / longitudinal section” value in data set [1] is “brain morphology similar to that of the normal group”. Further, at monomeric Aβ42, the “monomeric Aβ formation in cortex and hippocampus” value is reported as “monomeric Aβ formation was hardly observed”; the “plaques (MX04) in brain” value was “plaques were hardly observed”. Further, the “Aβ aggregates (ThT) in brain” value with Aβ aggregates is listed as “Aβ aggregates were hardly observed”. Also, the PAMPA-BBB permeability class entry in the data set “PAMPA-BBB analysis” (50 μM, incubation 4 hrs, U.V) is given as “High”. In “PAMPA-BBB analysis” (PAMPA, pH 7.4, 50 μM, incubation 4 hrs, U.V, read-out: Pe), the Papp at 4 h, 50 μM stood at 12.5 ×10⁻⁶ cm/s. In addition, in “PAMPA-BBB analysis” (assigned by comparison with compounds identified in previous reports), the “CNS± designation” value was “(CNS+)”.

Source of the values: US10464901B2, “Composition including benzene diamine derivative for preventing or treating degenerative brain diseases” (UNIST(ULSAN NATIONAL INSTITUTE OF SCIENCE AND TECHNOLOGY), priority 2017, dated 2019).
